ChEMBL document CHEMBL1141429, “Ecdysteroids from the Antarctic tunicate Synoicum adareanum” (J Nat Prod, 2007)

What was measured:
HCT-116 = assay: Cytotoxicity against human HCT116 cells after 3 days by disk diffusion assay; format: functional, cell-based; settings: for IC50: HCT-116, 72 h
H125M = assay: Cytotoxicity against human H125M cells after 3 days by disk diffusion assay; format: functional, cell-based
L1210 = assay: Cytotoxicity against […] cells after 3 days by disk diffusion assay; format: functional, cell-based
CCRF-CEM = assay: Cytotoxicity against human CCRF-CEM cells after 3 days by disk diffusion assay; format: functional, cell-based
[1] = Cytotoxicity against human CFU-GM cells after 3 days by disk diffusion assay; format: cell-based; settings: 72 h

SMILES: C[C@H](CCC(C)(C)O)[C@H]1CCC(=O)[C@]23CC(=O)C4=C[C@H](O)[C@H](O)C[C@]4(C)[C@H]2CC[C@]13C [ABEOHYOUSTERONE]
- IC50 (HCT-116): 3 µM

SMILES: C[C@H](CCCC(C)(C)O)[C@H]1CC[C@]2(O)C3=CC(=O)C4=C[C@H](O)[C@H](O)C[C@]4(C)[C@H]3CC[C@]12C [HYOUSTERONE B]
- Activity (HCT-116): Not toxic
- Activity (H125M): Not toxic
- Activity (L1210): Not toxic
- Activity (CCRF-CEM): Not toxic
- Activity [1]: Non-toxic

SMILES: C[C@H](CCCC(C)(C)O)[C@H]1CC[C@H]2C3=CC(=O)C4=C[C@H](O)[C@H](O)C[C@]4(C)[C@H]3CC[C@]12C [DIAULUSTEROL B]
- Activity (HCT-116): Not toxic
- Activity (H125M): Not toxic
- Activity (L1210): Not toxic
- Activity (CCRF-CEM): Not toxic
- Activity [1]: Non-toxic

SMILES: C[C@H](CCCC(C)(C)O)[C@H]1CC[C@@]2(O)C3=CC(=O)C4=C[C@H](O)[C@H](O)C[C@]4(C)[C@@]3(O)CC[C@]12C [HYOUSTERONE C]
- IC50 (HCT-116): 3.7 µM

SMILES: C[C@H](CCCC(C)(C)O)[C@H]1CC[C@]2(O)C3=CC(=O)C4=C[C@H](O)[C@H](O)C[C@]4(C)[C@@]3(O)CC[C@]12C [HYOUSTERONE D]
- Activity (HCT-116): Not toxic
- Activity (H125M): Not toxic
- Activity (L1210): Not toxic
- Activity (CCRF-CEM): Not toxic
- Activity [1]: Non-toxic

SMILES: C[C@H](CCCC(C)(C)O)[C@H]1CC[C@@]2(O)C3=CC(=O)C4=C[C@H](O)[C@H](O)C[C@]4(C)[C@H]3CC[C@]12C [HYOUSTERONE A]
- IC50 (HCT-116): 10.7 µM
